Experimental data from US9409866B2, “Pyridine-2-amides useful as CB2 agonists” (Hoffmann-La Roche Inc., priority 2012, dated 2016).

How the values were obtained:
human CB2 receptors = human CB2 receptors (Homo sapiens (Human), UniProt P34972); assay: functional cAMP assay, CHO cells expressing human CB2; format: cell-based; details: read-out: Human CB2 EC50
Method in brief: (§1)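 CHO cells expressing human CB1 or CB2 were preincubated 30 min at 30 °C in Krebs Ringer bicarbonate with 1 mM IBMX, then exposed to compound 30 min at 30 °C. cAMP quantified by TR-FRET competition (Alexa700 antibody/ruthenium-cAMP) against a 10 μM–0.13 nM standard curve; EC50 derived.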

human CB1 receptors = human CB1 receptors (Homo sapiens (Human), UniProt P21554); assay: functional cAMP assay, CHO cells expressing human CB1; format: cell-based; details: functional cAMP assay, CHO cells expressing human CB1; read-out: Human CB1 EC50
Method in brief: as §1

Chain of human CB1 receptors (P21554 whole entry): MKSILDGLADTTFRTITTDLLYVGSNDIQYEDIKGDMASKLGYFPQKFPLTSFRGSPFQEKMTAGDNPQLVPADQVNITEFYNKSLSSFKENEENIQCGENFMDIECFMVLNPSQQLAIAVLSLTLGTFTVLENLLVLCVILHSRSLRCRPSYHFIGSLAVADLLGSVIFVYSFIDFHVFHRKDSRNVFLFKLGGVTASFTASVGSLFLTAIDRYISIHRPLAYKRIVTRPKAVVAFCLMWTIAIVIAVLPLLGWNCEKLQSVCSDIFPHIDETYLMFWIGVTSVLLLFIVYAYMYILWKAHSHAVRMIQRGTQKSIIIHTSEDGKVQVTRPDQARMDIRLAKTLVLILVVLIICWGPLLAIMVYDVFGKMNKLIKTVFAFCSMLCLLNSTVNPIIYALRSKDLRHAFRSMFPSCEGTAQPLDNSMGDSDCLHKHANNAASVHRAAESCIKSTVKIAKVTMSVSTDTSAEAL
Chain of human CB2 receptors (P34972 whole entry): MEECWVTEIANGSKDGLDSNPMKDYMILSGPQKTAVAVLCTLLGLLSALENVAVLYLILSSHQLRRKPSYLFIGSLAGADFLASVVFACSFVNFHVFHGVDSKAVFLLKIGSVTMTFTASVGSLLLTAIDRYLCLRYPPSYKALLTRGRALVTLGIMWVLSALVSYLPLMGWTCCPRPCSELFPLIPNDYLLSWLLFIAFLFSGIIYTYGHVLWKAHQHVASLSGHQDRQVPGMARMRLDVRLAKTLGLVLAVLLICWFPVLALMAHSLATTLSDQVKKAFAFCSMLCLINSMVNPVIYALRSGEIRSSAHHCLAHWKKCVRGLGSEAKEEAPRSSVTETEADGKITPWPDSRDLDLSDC

Work on `NC(=O)CC1(NC(=O)c2cc(OCC3CC3)c(N3CC(F)(F)C3)cn2)CS(=O)(=O)C1` [Example 267, N-[3-(2-amino-2-oxoethyl)-1,1-dioxothietan-3-yl]-4-(cyclopropylmethoxy)-5-(3,3-difluoroazetidin-1-yl)pyridine-2-carboxamide] yielded an EC50 (human CB2 receptors) of 10.5 nM and an EC50 (human CB1 receptors) of over 10000 nM.

For `NC(=O)CC1(NC(=O)c2cc(OCC(F)F)c(C3CC3)cn2)CS(=O)(=O)C1` [Example 274, N-[3-(2-amino-2-oxoethyl)-1,1-dioxothietan-3-yl]-5-cyclopropyl-4-(2,2-difluoroethoxy)pyridine-2-carboxamide], the EC50 (human CB2 receptors) was 10.1 nM and the EC50 (human CB1 receptors) was over 10000 nM.

Work on `NC(=O)CC1(NC(=O)c2cc(OCCF)c(C3CC3)cn2)CS(=O)(=O)C1` [Example 281, N-[3-(2-amino-2-oxoethyl)-1,1-dioxothietan-3-yl]-5-cyclopropyl-4-(2-fluoroethoxy)pyridine-2-carboxamide] yielded an EC50 (human CB2 receptors) of 23.1 nM and an EC50 (human CB1 receptors) of over 10000 nM.

For `CNC(=O)CC1(NC(=O)c2cc(OCC(F)(F)F)c(C3CC3)cn2)CS(=O)(=O)C1` [Example 282, 5-cyclopropyl-N-[3-[2-(methylamino)-2-oxoethyl]-1,1-dioxothietan-3-yl]-4-(2,2,2-trifluoroethoxy)pyridine-2-carboxamide], the EC50 (human CB2 receptors) was 659 nM and the EC50 (human CB1 receptors) was over 10000 nM.

For `CNC(=O)CC1(NC(=O)c2cc(OCC(F)(F)F)c(C3(F)CCC3)cn2)CS(=O)(=O)C1` [Example 285, 5-(1-fluorocyclobutyl)-N-[3-[2-(methylamino)-2-oxoethyl]-1,1-dioxothietan-3-yl]-4-(2,2,2-trifluoroethoxy)pyridine-2-carboxamide], the EC50 (human CB2 receptors) was 1440 nM and the EC50 (human CB1 receptors) was over 10000 nM.

`NC(=O)CC1(NC(=O)c2cc(OCC(F)(F)F)c(C3(F)CCC3)cn2)CS(=O)(=O)C1` [Example 286, N-[3-(2-amino-2-oxoethyl)-1,1-dioxothietan-3-yl]-5-(1-fluorocyclobutyl)-4-(2,2,2-trifluoroethoxy)pyridine-2-carboxamide] was tested, and the EC50 (human CB2 receptors) was 45.9 nM and the EC50 (human CB1 receptors) was over 10000 nM.

Compound `CC(CF)Oc1cc(C(=O)NC(C)(CC(N)=O)C2CC2)ncc1C1CC1` (stereo not drawn) [Example 293, N-(4-amino-2-cyclopropyl-4-oxobutan-2-yl)-5-cyclopropyl-4-(1-fluoropropan-2-yloxy)picolinamide] has an EC50 (human CB2 receptors) of 1.3 nM and an EC50 (human CB1 receptors) of over 10000 nM.

`CC(CF)Oc1cc(C(=O)NC(C)(CC(N)=O)C2CC2)ncc1C1CC1` (stereo not drawn) [Example 294, N-(4-amino-2-cyclopropyl-4-oxobutan-2-yl)-5-cyclopropyl-4-(1-fluoropropan-2-yloxy)picolinamide] showed an EC50 (human CB2 receptors) of 0.6 nM and an EC50 (human CB1 receptors) of over 10000 nM.

`NC(=O)CC1(NC(=O)c2cc(OCC(F)(F)F)c(C3CCC3)cn2)CS(=O)(=O)C1` [Example 299, N-[3-(2-amino-2-oxoethyl)-1,1-dioxothietan-3-yl]-5-cyclobutyl-4-(2,2,2-trifluoroethoxy)pyridine-2-carboxamide] gave an EC50 (human CB2 receptors) of 2 nM and an EC50 (human CB1 receptors) of over 10000 nM.

Work on `CC(CC(N)=O)(NC(=O)c1cc(OCC(F)(F)F)c(C2(F)CCC2)cn1)C1CC1` (stereo not drawn) [Example 300, N-(4-amino-2-cyclopropyl-4-oxobutan-2-yl)-5-(1-fluorocyclobutyl)-4-(2,2,2-trifluoroethoxy)picolinamide] yielded an EC50 (human CB2 receptors) of 6.7 nM and an EC50 (human CB1 receptors) of over 10000 nM.

Compound `C[C@H](Oc1cc(C(=O)NC2(CC(N)=O)CS(=O)(=O)C2)ncc1C1(F)CCC1)C(F)(F)F` [Example 305, N-[3-(2-amino-2-oxoethyl)-1,1-dioxothietan-3-yl]-5-(1-fluorocyclobutyl)-4-[(2S)-1,1,1-trifluoropropan-2-yl]oxypyridine-2-carboxamide] has an EC50 (human CB2 receptors) of 5.1 nM and an EC50 (human CB1 receptors) of over 10000 nM.

`NC(=O)CC1(NC(=O)c2cc(OCC(F)F)c(C3(F)CCC3)cn2)CS(=O)(=O)C1` [Example 308, N-[3-(2-amino-2-oxoethyl)-1,1-dioxothietan-3-yl]-4-(2,2-difluoroethoxy)-5-(1-fluorocyclobutyl)pyridine-2-carboxamide] showed an EC50 (human CB2 receptors) of 73 nM and an EC50 (human CB1 receptors) of over 10000 nM.
